Counter-ions that a name gives are not always drawn. Like-named read-outs stand apart in the source and are kept apart here. One block for each compound: values may come before it.
Legend:
rat M1 receptors = target: T1, rat M1 receptors (Rattus norvegicus, UniProt P08482); experiment: PI turnover (inositol phosphate production) in M1-CHO cells; format: cell-based; details: for functional selectivity for M1- versus M3-subtype by PI turnover: cell lines expressing individual subtypes of muscarinic receptors; for M1/CHO PI turnover Relative Mean Smax: relative to mean Smax for carbachol (100.0)
T1 construct: host or cells: Chinese Hamster Ovary cells (M1-CHO)
T1 sequence (P08482 1-460): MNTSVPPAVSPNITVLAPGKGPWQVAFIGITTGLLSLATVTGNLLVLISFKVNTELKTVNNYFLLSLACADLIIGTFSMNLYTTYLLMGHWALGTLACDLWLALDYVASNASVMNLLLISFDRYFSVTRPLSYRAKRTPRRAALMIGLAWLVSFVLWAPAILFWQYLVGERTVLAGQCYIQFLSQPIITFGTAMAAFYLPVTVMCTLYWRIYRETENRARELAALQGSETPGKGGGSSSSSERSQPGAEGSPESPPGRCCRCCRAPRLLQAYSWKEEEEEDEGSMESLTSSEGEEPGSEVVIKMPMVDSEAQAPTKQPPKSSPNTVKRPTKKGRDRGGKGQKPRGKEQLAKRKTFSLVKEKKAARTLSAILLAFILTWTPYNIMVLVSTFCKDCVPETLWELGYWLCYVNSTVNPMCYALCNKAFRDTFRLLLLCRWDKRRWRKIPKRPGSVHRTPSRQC
Experimental: (§1) The medium was changed to 70 μL/well of inositol-free DMEM containing 2 mM glutamine, 10% FBS and 10 μCi/ml of [3H]-inositol (PE:cat # NET114A250UC), incubated overnight as above, then 100 μL of a solution of the test compound in HBSS containing 10 mM LiCl and 20 mM HEPES, pH 7.4 was added, incubation was continued for 60 min under the above conditions, and the test was stopped by removing the test compound and replacing with 100 μL of 50 mM formic acid in water at 4° C.

rats = experiment: Salivary flow in rats dosed orally; format: in vivo, rat
[1] = Serum pharmacokinetics of immediate release capsules in human subjects; format: in vivo; details: male; for Cmax / half-life: oral
Experimental: The hydrochloride salt of MCD-386 (“MCD-386 HCl”) was formulated with the following excipients and loaded into #3 hard gelatin capsules (5mg dose) or #2 hard gelatin capsules (0.2 mg dose).
(§2) A single 5 mg capsule or 5×0.2 mg capsules (1 mg total dose) were administered orally to healthy male volunteer human subjects with 125 ml of water. Six such subjects receiving the 5 mg dose, and a different 6 subjects received the 1 mg dose.
Venous blood samples were drawn at various intervals after dosing from each subject into standard tubes for bioanalytical and pharmacokinetic analysis. The blood was allowed to clot, and the serum separated, using common clinical laboratory techniques. Serum samples were stored at −20 deg C. until used for analysis.
MCD-386 HCl, which exists in serum principally as the protonated form of MCD-386, was assayed in clinical serum samples as follows. 200 μL aliquots of serum samples were spiked with 50.0 μL of diluent for subject samples and QC samples and 50 μL of the appropriate intermediate standard solution for standards. Twenty five microliters (25.0 μL) of working internal standard stock solution and 40.0 μL of 10 N sodium hydroxide was then added and the samples were vortex mixed. Three milliliters (3.00 mL) of ethyl acetate was added followed by 5 minutes of vigorous vortexing and centrifugation. The top organic layer was transferred to a clean tube, evaporated to dryness, and the sample was reconstituted with 100 μL of diluent (0.1% formic acid). A 10 μL aliquot of this reconstituted sample was injected into Phenomenex Synergy 4 μ POLAR-RP, 75×2.0 mm (P/N 00C-4336-B0) on a Waters Acuity UPLC LC system, and eluted using a gradient of from 12% to 90% acetonitrile containing 0.1% formic acid/0.1% formic acid in water. The eluant flow of the LC was injected by Turbo Ion Spray (positive ion) into a Sciex API 4000 (Applied Biosystems). The MS/MS transitions monitored were 181.1 m/z to 111.0 m/z for MCD-386 HCl and 186.1 m/z to 111.1 m/z for the internal standard, D5- MCD-386 HCl. The calibration curve was linear between 0.100 ng/mL and 50.0 ng/mL for MCD-386 HCl. The lower limit of quantitation (LLOQ) was 0.100 ng MCD-386 HCl per mL of serum. MCD-386 HCl concentrations are expressed as free base.
The bioanalytical results were analyzed using Win Nonlin software and common pharmacokinetic methods known to those skilled in the art.

[2] = Metabolites in human serum samples; format: in vivo; details: 5mg dose cohort
Experimental: The bioanalytical method for the extraction of metabolites from serum samples entailed adding 450 uL of a 90% acetonitrile +0.1% formic acid solution to 50 uL of the serum samples. The samples were vortexed and centrifuged at 16,000×g at 4° C. for 10 minutes. The supernatants were transferred to 3K molecular weight cut-off (MWCO) spin filters (Pall, Nanosep, #82031-346). Samples were filtered by centrifugation at 13,000×g at 4° C. for 20 minutes. The filtrates were transferred to a 96-well plate and sealed for LC/MS/MS analysis. The system used for this analysis was a Shimadzu Prominence HPLC system. […] The autosampler was maintained at 4° C. Injection volumes for all samples and standards were 40 uL. MRM methods for two possible metabolites were made. An API 3200 triple-quadrupole mass spectrometer with a Turbo V source (Applied Biosystems) was used, following commonly used procedures which would be readily set up by a person skilled in the art of LC-MS/MS. The counts of the characteristic parent and product ions of the free base metabolites were converted to concentration units by comparison with a standard calibration curve.

[3] = test system: healthy male volunteer human subjects; experiment: Cholinergic side effects of immediate release capsules in human subjects; format: in vivo
Experimental: as §2
Subjects were monitored, among other things, for typical signs of muscarinic cholinergic action, such as increased salivation, lachrimation and diaphoresis.

rat M3 receptors = target: T2, rat M3 receptors (Rattus norvegicus, UniProt P08483); experiment: PI turnover (inositol phosphate production) in M3-CHO cells; format: cell-based; details: relative to mean Smax for carbachol (100.0)
T2 construct: host or cells: Chinese Hamster Ovary cells (M3-CHO)
T2 sequence (P08483 whole entry): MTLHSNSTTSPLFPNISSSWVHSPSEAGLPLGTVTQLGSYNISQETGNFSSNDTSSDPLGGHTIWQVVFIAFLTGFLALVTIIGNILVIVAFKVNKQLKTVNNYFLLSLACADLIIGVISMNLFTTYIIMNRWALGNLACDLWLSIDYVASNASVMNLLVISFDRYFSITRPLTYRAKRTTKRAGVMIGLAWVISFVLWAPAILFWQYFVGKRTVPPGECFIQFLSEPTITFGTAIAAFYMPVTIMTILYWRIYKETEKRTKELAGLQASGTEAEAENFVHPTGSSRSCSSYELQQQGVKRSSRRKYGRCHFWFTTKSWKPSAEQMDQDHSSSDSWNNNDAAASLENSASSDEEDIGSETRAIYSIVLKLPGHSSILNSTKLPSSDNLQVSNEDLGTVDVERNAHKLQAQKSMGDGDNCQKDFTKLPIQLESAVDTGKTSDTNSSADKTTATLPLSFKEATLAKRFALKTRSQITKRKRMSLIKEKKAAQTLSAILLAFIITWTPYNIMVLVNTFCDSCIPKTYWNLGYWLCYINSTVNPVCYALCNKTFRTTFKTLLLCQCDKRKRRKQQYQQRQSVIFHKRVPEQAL
Experimental: as §1

[4] = Metabolites in serum and urine of dosed rats (LC-MS); format: in vivo; details: rat serum/plasma or urine, oral dosing; hydrochloride
Experimental: Oxadiazoles disclosed herein as well as other oxadiazoles were investigated to determine the formation of metabolites. Animals were dosed, blood taken, serum prepared, serum proteins precipitated and ultrafiltrates prepared as described in Example 6. In separate experiments, urine was collected from rats for 16-24 hours after dosing, using standard metabolic cages. The urine container and collected urine were maintained at 4° C. Urine was lyophilized, taken back into water. The ultrafiltrate was prepared by adding formic acid to a final concentration of 1% to the urine samples, then filtered through a 0.2 um nylon membrane. The ultrafiltrate was subjected to LC-MS analysis. Instead of measuring the product ions in Q3, manual Q1 scans of the liquid chromatograph were undertaken, seeking parent ions of potential metabolites of the compounds. The criteria for identifying metabolites were as follows: (1) the ion should be present in the sera or urines of dosed rats, but not in sera or urines from non-dosed rats (2) the ion should be identifiable as a metabolic derivative of the dosed compound (e.g. loss of a functional chemical moiety, addition of a hydroxyl group or a glucuronic acid moiety, etc). Metabolites were determined not to be present if no compound meeting the above criteria could be detected in serum or urine.

[5] = Brain concentrations in rats after oral gavage; format: in vivo, rat; details: for Brain Cmax (10 mg/kg po) MCD-386 = 1.00: rat, relative to MCD-386; for penetration into the brain: rats after oral dosing
Experimental: Long-Evans Hooded rats (Charles River: male, 250-350 g) were dosed with solutions of test compounds in PBS by oral gavage. At the desired time after dosing, the animals were anesthetized with isoflurane, and then euthanized by cervical dislocation. Blood was obtained by cardiac puncture, transferred to a 1.5 mL microcentrifuge tube containing 15U Heparin, and the plasma recovered after centrifugation. Brains were dissected, weighed, immediately chilled to 4° C., and homogenized using a PowerGen 125 homogenizer in five volumes of ice-cold 2% formic acid. Proteins were precipitated from plasma and brain homogenate with two and five volumes respectively of ice-cold 2% formic acid and clarified by centrifugation. The supernatant was ultra-filtered by centrifugation through a 3K MWCO spin column (Pall Life Sciences), following the manufacturer's instructions. The concentration of compound in the ultra-filtrate was subjected to reverse-phase liquid chromatography using a 150×2.1 mm Agilent C8 reverse-phase column on a Shimadzu Prominence LC, eluting the compounds with a gradient of 2% to 50% of acetonitrile+0.1% formic acid for compound MI-50,382, or an isocratic flow of 2% acetonitrile+0.1% formic acid for the rest of the compounds listed. The concentration of the compound in the column effluent was measured using an Applied Biosystems API-3200 triple quadrupole mass spectrometer equipped with an electrospray sample injection system. The counts of the characteristic parent and product ions of each test compound were converted to concentration units by comparison with a standard calibration curve.

[6] = rat, in vivo, po

SMILES: Cl.[2H]C([2H])([2H])c1noc(C2CN=CNC2)n1 (centres unmarked) [Compound 74, 3-(d3-methyl)-5-(1,4,5,6-tetrahydropyrimidin-5-yl)-1,2,4-oxadiazole hydrochloride]
agonist efficacy at M1- and M3-subtype muscarinic receptors by PI turnover (rat M1 receptors): near full-agonist
functional selectivity for M1- versus M3-subtype by PI turnover (rat M1 receptors): not selective for the M1 subtype
M1/CHO PI turnover Relative Mean Smax (rat M1 receptors): 98.6
salivary flow (rats): copious salivary flow

Cmax ([1]; 6 subjects receiving 1 mg of MCD-386 HCl): ≤ 8 ng/mL
Cmax ([1]; 6 subjects receiving 5 mg of MCD-386 HCl): 7.9 to 25.2 ng/mL
Tmax ([1]; oral immediate release capsules): 1 to 1.5 h
half-life ([1]; 0.2 mg, cohort of 6 subjects receiving 0.2 mg, +/- SD, read-out: mean half-life (converted)): 1.2 h
half-life ([1]; 1 mg, 1 mg cohort, +/- SD, read-out: half-life of the free base (converted)): 1.44 h
half-life ([1]; 5 mg, 5 mg cohort excluding one subject, read-out: mean half-life for the other 5 subjects (converted)): 1.44 h
half-life ([1]; 5 mg, 5 mg cohort, +/- SD, read-out: half-life of the free base (converted)): 1.71 h
half-life ([1]; 5 mg, 5 mg cohort, subject with the longest half-life, read-out: half-life in one subject (converted)): 2.93 h
main metabolite of the free base identified in serum samples [2]: five out of six subjects
SMILES: CCc1noc(C2CN=CNC2)n1 (centres unmarked) [MCD-386 HCl, 5-(3-ethyl-1,2,4-oxadiazol-5-yl)-1,4,5,6-tetrahydropyrimidine]
observable cholinergic side effects ([3]; 1 mg total dose cohort, 6 subjects): none of the subjects
subjects with mild hypersalivation ([3]; 5 mg cohort): One
subjects with mild, transient diaphoresis ([3]; 5 mg cohort): Two
subjects with moderate diaphoresis ([3]; 5 mg cohort): two
signs of muscarinic cholinergic activity ([3]; 5 mg cohort, 6 subjects): four subjects showed signs of muscarinic cholinergic activity

SMILES: [2H]C([2H])([2H])C([2H])([2H])c1noc(C2CN=CNC2)n1 (centres unmarked) [Compound 70, 3-(1,1,2,2,2-d5-ethyl)-5-(1,4,5,6-tetrahydropyrimidin-5-yl)-1,2,4-oxadiazole hydrochloride]
M3/CHO PI turnover Relative Mean Smax (rat M3 receptors): 16.5
Presence of metabolites (10 mg/kg po) [4]: No metabolites were identified and No
functional selectivity for M1- versus M3-subtype by PI turnover (rat M1 receptors): M1-subtype functionally selective muscarinic agonists
M1/CHO PI turnover Relative Mean Smax (rat M1 receptors): 67.7
Brain Cmax (10 mg/kg po) MCD-386 = 1.00 [5]: 0.61
penetration into the brain [5]: penetrated into the brain

PAMPA (? × 106): 0.26 ? × 106
Brain/plasma ratio [6]: Very low
SMILES: CNC(=C[N+](=O)[O-])NCCSCc1ccc(CN(C)C)o1 [Ranitidine, reference compound]

SMILES: [2H]C([2H])(C)c1noc(C2CN=CNC2)n1 (centres unmarked) [Compound 66, 3-(2,2-d2-Ethyl)-5-(1,4,5,6-tetrahydropyrimidin-5-yl)-1,2,4-oxadiazole hydrochloride]
M3/CHO PI turnover Relative Mean Smax (rat M3 receptors): 15.1
Presence of metabolites (10 mg/kg po) [4]: No metabolites were identified and No
functional selectivity for M1- versus M3-subtype by PI turnover (rat M1 receptors): M1-subtype functionally selective muscarinic agonists
M1/CHO PI turnover Relative Mean Smax (rat M1 receptors): 84.0
Brain Cmax (10 mg/kg po) MCD-386 = 1.00 [5]: 0.82
penetration into the brain [5]: penetrated into the brain

Reference: patent US20120046273A1, “COMPOUNDS AND COMPOSITIONS FOR COGNITION-ENHANCEMENT, METHODS OF MAKING, AND METHODS OF TREATING” (MITHRIDION, INC., priority 2009, published 2012)
